Molecules are shown by their SMILES. Read-outs that look alike come from different tables or passages of the source.

The source of these data is patent EP0139358B1, “N6-substituted diarylalkyl adenosines, processes for their production and pharmaceutical compositions comprising the same” (priority 1983, dated 1985).

The subject of data set [1] is Swiss-Webster male mice. Briefly: Mouse Activity and Screen Test (MAST): inhibition of spontaneous locomotion (LI). The class given is in vivo. As to conditions: for Inhibition of mouse locomotor activity: one hour prior to testing, vs vehicle; for minimal effective dose: Mus musculus, ip, read-out: MAST LI LAD. The procedure:
(§1) Treatments are administered intraperitoneally one hour prior to testing. […] Compounds are dissolved or suspended in 0.2% Methocel. Control animals are injected with Methocel.
Immediately following the screen test, the final phase of testing is initiated by placing each group of three mice in one actophotometer (Life Sciences, 22, 1067-1076, 1978). The actophotometer consists of a cylindrical chamber whose center is occupied by another cylinder which contains the illumination for six photocells located on the perimeter of the chamber. Six light-beam interruptions equal one count. Locomotor activity is recorded by computer at ten minute intervals for 60 minutes. […]

The test system of data set [2] is conscious rat. Briefly: Antihypertensive evaluation (AHP3): aortic blood pressure and heart rate. The class given is in vivo. Conditions: lowest dose tested at which a >10% reduction in blood pressure for four consecutive hours is achieved; conscious rat; read-out: AHP3 BP LAD. The source says:
[…] EVALUATION (AHP3)
This test procedure is described in the following paragraphs.
A Method for the Direct Monitoring of Aortic Blood Pressure and Heart Rate from Conscious Rats
The continuous monitoring of pulsatile blood pressure (BP) from unrestrained conscious rats surgically equipped with polyethylene cannulas was accomplished by means of a computer assisted data capture scheme (CADCS). The absic elements of the methodology are the cannulation procedure and the CADCS.
Cannulation Procedure: Rats were anesthetized with Telazol (1:1 tiletamine HCI and zolazepam HCI); 20-40 mg/kg IM and the descending aorta exposed via a midline incision. Cannulas fabricated from polyethylene tubing were inserted into the aorta via an undersized puncture hole below the renal arteries. The puncture hole was made by a 23 G disposable needle with a section of the aorta clamped off above and below the puncture site. The cannulas, consisting of a PE100 (0.86 mm ID) body and a PE50 (0.58 mm ID) tip, were attached to a trocar, inserted through the psoas muscle, and passed subcutaneously along the midline of the back and externalized between the ears. The cannulas were anchored to the psoas muscle and between the scalulae (3-0 green braided suture). The midline incision was closed in two steps (muscle first, skin second) using continuous over-and over sutures (4-0 chronic). Each rat was then given penicillin 30,000 units subcutaneously (Penicillin G Procaine Sterile Suspension).
The rats were fitted with a harness-spring-swivel assembly designed to protect the cannula and to provide the rat relative freedom of movement. The harnesses were fabricated from nylon hook and loop tape cemented to a metal plate to which spring wires (18-8 stainless steel), were attached to brass swivels. Each polyethylene cannula was channeled through a spring and connected through a swivel to a pressure transducer (Model P23Gb; Statham Instruments; Hato Rey, Puerto Rico) and an infusion pump (Sage model 234-7; Orion Research, Cambridge, Ma) by means of PE100 tubing. While on test, each rat received a continuous slow infusion of heparinized saline solution (approximately 400 I or 40 units of heparin per 24 hour period) to prevent clot formation. Additional "flushes" of the cannula with heparinized saline were carried out when the aortic pulse pressure (systolic minus diastolic) was less than 25 mm Hg.
CADCS: The pulsatile blood pressure and heart rate of each of 32 rats was monitored every minute by means of two in-laboratory microcomputers communicating directly with a data concentrator computer. The data were first stored on the data concentrator disk and then transferred to a magnetic tape for analysis and report generation by the main research computer. The overall scheme involved modulating the primary signal from the pressure transducer, generating the primary data set of the one-minute values for systolic, diastolic, and mean blood pressures and heart rate by the in-lab microcomputer and the storage, analysis, and report generation by the main research computer.
The transducers were connected to analog signal conditioning modules. The modules providing a regulated excitation voltage for the transducers, amplification as required to interface the microprocessors and an active low pass filter to compensate for the pressure wave form distortion produced by the flexible, fluid filled, narrow cannula.
The microcomputers (one for each of two groups of 16 rats) were connected to the input components through the module interface units, an analog-to-digital converter for the pressure wave form signal and the digital inputs for the dose and event marker switches. The microcomputer controlled the sequential acquisition of data from the modular interface units through an internal synchronous time-of-day clock/ time base generator. […]

Data set [3] has as its system Swiss-Webster male mice. Nature of the data set: Mouse Activity and Screen Test (MAST): screen test (ST). The class given is in vivo. Conditions: for Inhibition of screen test failure: percent of mice falling off the screen; for MAST ST LAD: lowest dose at which an A rating (60-100%) is achieved, screen test, intraperitoneally. The procedure: as §1
The compounds are identified in the Examples.

Data set [4] deals with rat heart. Briefly: Coronary blood flow (PCS2A): isolated perfused heart. Conditions: for EC50: isolated perfused rat heart. The procedure:
CORONARY BLOOD FLOW (PCS2A)
Male rats (400-600 gms) are pretreated with Na haparin 2000 units and anesthetized with Na pentobarbital (50 mg/kg) administered intraperitoneally. Once anesthetized, the rat heart is rapidly excised, the ascending aorta fitted to the aortic perfusion cannula, and […] with a ligature. The coronary arteries are perfused initially at a rate of about 15 ml/min for two to three minutes, afterwhich they are perfused at constant pressure of 70 mm Hg and temperature of 37°C. The electrocardiogram (ECG) is recorded using two platinum electrodes positioned at the base and apex of the left ventricle. A second heart is excised, cannulated, and perfused by the same method outlined above. Both hearts are tested in parallel. The standard physiological salt solution (PSS) is a modified Krebs-Hanseleit bicarbonate buffer of the following composition in mM concentration: NaCI, 127; NaHC03, 25; dextrose, 5.5; Na Pyruvate, 2.0: KCI, 4.7; MgS04, 1.1; KH 2P04, 1.2; CaCl2·2H2O, 2.5; CaNa2 EDTA, 0.05.
A 30-minute stabilization period is observed before starting the test protocol.
The microprocessor control system is a servo mechanism which permits coronary perfusion pressure (CPP) and drug concentration to be maintained constant independent of changes in coronary flow. The level at which CPP and drug concentration are maintained can be changed by commands communicated through the microprocessor keyboard. Dose-response curves are carried out by perfusing concentrated drug solution (DC) at rates proportional to total coronary flow (CFT). Drug concentrations are increased by proportionate increases in the rate of DC infusion over CFT via the microprocessor keyboard. The proportional flow rates for DC:CFT is about .0002:1 at the low end and .02: at the high end of the dose-response curve. Dose-response curves encompassing at least two log doses are carried out by preparing two DCs with a concentration difference of 1:100. Following the first dose range of two log doses, the DC are switched, proportional pumping rate adjusted, and the dose-response curve continued for another two log doses. The standard dose-response curve is carried out in one-half log dose increments starting at a subthreshold dose and ending at a dose which produces near maximal response in activity. Standard reference compounds are tested over the range of 10-^9 to 10-^6M.
Measurements are for heart rate (HR) and coronary flow (CF). Units are: HR, beats/minute (bpm) and CF, milliliters/minute (ml/min). HR is calculated from the ECG strip chart recording and CF is calculated by recording analog outputs from pumps 1 and 2. Outputs from pump #1 = CFT and the output from pump #2 = CF for heart B (CFg). CF for heart A (CFA) is calculated (CFT - CFB = CFA).
Using the above technique, the effects of the compound of Examples 1 and 2 are as follows: […]

The mark [5] stands for this setting: coronary flow, read-out: PCS2A CF ED50.
Where [6] appears, read: heart rate, read-out: PCS2A HR ED50.

Regarding `OC[C@H]1O[C@@H](n2cnc3c(NCCC(c4ccccc4)c4ccccc4)ncnc32)[C@H](O)[C@@H]1O` [Example 2, N^6-(3,3-Diphenylpropyl)adenosine], the “Inhibition of mouse locomotor activity” value is reported as −9% in data set [1] (10 mg/kg intraperitoneally), 13% in data set [1] (30 mg/kg intraperitoneally) and 60% in data set [1] (100 mg/kg intraperitoneally). Moreover, the minimal effective dose was 100 mg/kg in data set [1] and more than 30 mg/kg in data set [2]. Further, the “Inhibition of screen test failure” value in data set [3] (10 mg/kg intraperitoneally), in data set [3] (30 mg/kg intraperitoneally) and in data set [3] (100 mg/kg intraperitoneally) was 0% in each case. Besides, in data set [3], the “MAST ST LAD” value is given as more than 100 mg/kg. Moreover, in data set [4] (Dose 1 × 10^-6 Molar, coronary flow change, isolated rat heart, read-out: CF), the activation at 1 µM came out at 47%. Moreover, the activation at 0.1 µM in data set [4] (Dose 1 × 10^-7 Molar, coronary flow change, isolated rat heart, read-out: CF) came out at 42%. Also, in data set [4] (Dose 1 × 10^-8 Molar, coronary flow change, isolated rat heart, read-out: CF), the activation at 0.01 µM was determined as 26%. Moreover, the activation at 3 µM in data set [4] (Dose 3 × 10^-6 Molar, coronary flow change, isolated rat heart, read-out: CF) is 48%. For the same compound, the EC50 in data set [4] (setting [5]) amounted to 3 µM; in data set [4] (setting [6]), 6 µM.

For the compound `OC[C@H]1O[C@@H](n2cnc3c(NCCCC(c4ccccc4)c4ccccc4)ncnc32)[C@H](O)[C@@H]1O` [Example 6, N^6-(4,4-Diphenylbutyl)adenosine], the minimal effective dose is 100 mg/kg in data set [1] and more than 30 mg/kg in data set [2]. In addition, the “MAST ST LAD” value in data set [3] is recorded as more than 100 mg/kg. The EC50 in data set [4] (setting [5]) was 0.014 µM; in data set [4] (setting [6]) it was more than 1 µM.

Consider `Cc1cccc(C(CNc2ncnc3c2ncn3[C@@H]2O[C@H](CO)[C@@H](O)[C@H]2O)c2ccccc2)c1` (stereo partly drawn) [Example 9, N^6-(2-(3-Methylphenyl)-2-phenylethyl)adenosine], for which the minimal effective dose in data set [1] is not above 10 mg/kg. For the same compound, in data set [3], the “MAST ST LAD” value is on record as 100 mg/kg.

Regarding `OC[C@H]1O[C@@H](n2cnc3c(NCC(c4ccc(F)cc4)c4ccc(F)cc4)ncnc32)[C@H](O)[C@@H]1O` [Example 13, ^N'-(^2,2-Di-(4-fluorophenyl)ethyl)adenosine], the minimal effective dose in data set [1] is 3 mg/kg; in data set [2] it was 10 mg/kg. For the same compound, the “MAST ST LAD” value in data set [3] is recorded as more than 100 mg/kg.

As for `OC[C@H]1O[C@@H](n2cnc3c(NCC(c4ccccc4)c4cccc(Cl)c4)ncnc32)[C@H](O)[C@@H]1O` (stereo partly drawn) [Example 14, N^6-(2-(3-Chlorophenyl)-2-phenylethyl)adenosine], the minimal effective dose in data set [1] is 1 mg/kg. The “MAST ST LAD” value in data set [3] is reported as more than 100 mg/kg.

`Nc1nc(NCC(c2ccccc2)c2ccc(Cl)cc2)c2ncn([C@@H]3O[C@H](CO)[C@@H](O)[C@H]3O)c2n1` (stereo partly drawn) [Example 16, N^6-(2-(4-Chlorophenyl)-2-phenylethyl)-2-aminoadenosine]: the minimal effective dose is 100 mg/kg in data set [1] and more than 10 mg/kg in data set [2]. Moreover, in data set [3], the “MAST ST LAD” value was more than 100 mg/kg.

Regarding `OC[C@H]1O[C@@H](n2cnc3c(NCC(c4ccc(Cl)cc4)c4ccc(Cl)cc4)ncnc32)[C@H](O)[C@@H]1O` [Example 17, N^6-(2,2-Di(4-chlorophenyl)ethyl)adenosine], the minimal effective dose in data set [1] is 100 mg/kg. For the same compound, in data set [3], the “MAST ST LAD” value is reported as more than 100 mg/kg. Besides, the EC50 in data set [4] (setting [5]) and in data set [4] (setting [6]) was more than 3 µM each time.

Consider `Nc1nc(NCC(c2ccc(Cl)cc2)c2ccc(Cl)cc2)c2ncn([C@@H]3O[C@H](CO)[C@@H](O)[C@H]3O)c2n1` [Example 18, N^6-(2,2-Di-(4-chlorophenyl)ethyl)-2-aminoadenosine], for which the minimal effective dose in data set [1] is more than 30 mg/kg; in data set [2], more than 10 mg/kg. For the same compound, the “MAST ST LAD” value in data set [3] is on record as more than 30 mg/kg.

As to `COC(=O)C(CNc1ncnc2c1ncn2[C@@H]1O[C@H](CO)[C@@H](O)[C@H]1O)(c1ccccc1)c1ccccc1` [Example 24, N^s-(2-Carbomethoxy-2,2-diphenylethyl)adenosine], the minimal effective dose in data set [1] came to 30 mg/kg. Besides, the “MAST ST LAD” value in data set [3] is more than 30 mg/kg. For the same compound, the results for the EC50 in data set [4] (setting [5]) and in data set [4] (setting [6]) were more than 3 µM and 3 µM, respectively.

As to `O=C(OC[C@H]1O[C@@H](n2cnc3c(NCC(c4ccccc4)c4ccccc4)ncnc32)[C@H](OC(=O)c2ccccc2)[C@@H]1OC(=O)c1ccccc1)c1ccccc1` [Example 26, 2',3',5'-Tri-0-benzoyl-N^6-(2,2-diphenylethyl)adenosine], the minimal effective dose in data set [1] and in data set [2] was 10 mg/kg in each case. The “MAST ST LAD” value in data set [3] is given as more than 100 mg/kg.

For the compound `CC(=O)OC[C@H]1O[C@@H](n2cnc3c(NCC(c4ccccc4)c4ccccc4)nc(Cl)nc32)[C@H](OC(C)=O)[C@@H]1OC(C)=O` [Example 27, 2',3',5'-Tri-O-acetyl-N^6-(2,2-diphenylethyl)-2-chloroadenosine], the minimal effective dose in data set [1] was 30 mg/kg. The “MAST ST LAD” value in data set [3] was more than 100 mg/kg.

`O=P(O)(O)OC[C@H]1O[C@@H](n2cnc3c(NCC(c4ccccc4)c4ccccc4)ncnc32)[C@H](O)[C@@H]1O` [Example 28, N^6-(2,2-Diphenylethyl)adenosine-5'-phosphate]: in data set [1], the minimal effective dose was not above 3 mg/kg. In addition, in data set [3], the “MAST ST LAD” value is reported as more than 30 mg/kg.

`CC1(C)O[C@@H]2[C@H](O1)[C@@H](CO)O[C@H]2n1cnc2c(NCC(c3ccccc3)c3ccccc3)ncnc21` [Example 29, 2',3'-0-Isopropylidene-N6-(2,2-diphenylethyl)adenosine]: the minimal effective dose in data set [1] was determined as 30 mg/kg; in data set [2], 10 mg/kg. Moreover, in data set [3], the “MAST ST LAD” value is more than 100 mg/kg.
